This is an account of results in patent US7067261B2 (priority 2001, dated 2006).

The target in one assay is α7 (Homo sapiens, UniProt P36544). Kind of assay: biochemical. The format is binding.
A further assay concerns the target α7 nAChR (Homo sapiens, UniProt P36544). In kind it is cell-based.
Another assay deals with ganglionic subtype α3β4 (Homo sapiens, UniProt P30926+P32297). The format is cell-based.
For the next assay, the target named is muscle subtype α1β1γδ (Homo sapiens, UniProt P02708+P07510+Q07001). The format is cell-based.
The target in the next assay is α3β2 (Homo sapiens, UniProt P17787+P32297). The format is cell-based.
The target in the next assay is α4β2 (Homo sapiens, UniProt P17787+P43681). In kind it is cell-based.
The subject of a further assay is JAK2. The format is cell-based.
The next assay concerns PI-3 kinase. In kind it is cell-based, rat.
The test system of a further assay is Akt. The format is cell-based, rat.
Assay [1] deals with Reserpine-Induced Dopamine Depletion—Mice. The settings on record: mouse, in vivo; cited from earlier work.
The next assay concerns PC12 cells. The format is cell-based, rat.
For assay [2], the system named is poly-(ADP-ribose)polymerase (PARP). The format is cell-based, rat.
Assay [3] deals with complex formation between Aβ(1–42) and α7-nAChR (Rattus norvegicus, UniProt Q05941). In kind it is cell-based.
A further assay relates to caspase 3. The format is cell-based, rat.
The target of assay [4] is JAK2 complex formation with the α7 receptor (Rattus norvegicus, UniProt Q05941).
The subject of assay [5] is 6-OHDA (Partial Lesion)—Rats. The settings on record: rat, in vivo, sc, 1 mg/kg; cited from earlier work.
Assay [6] deals with methamphetamine toxicity in mice. The settings on record: mouse, in vivo; cited from earlier work.
For a further assay, the system named is MPTP effects, Mice. The settings on record: mouse, in vivo; cited from earlier work.

Chain of complex formation between Aβ(1–42) and α7-nAChR (Q05941 23-502, one chain of several): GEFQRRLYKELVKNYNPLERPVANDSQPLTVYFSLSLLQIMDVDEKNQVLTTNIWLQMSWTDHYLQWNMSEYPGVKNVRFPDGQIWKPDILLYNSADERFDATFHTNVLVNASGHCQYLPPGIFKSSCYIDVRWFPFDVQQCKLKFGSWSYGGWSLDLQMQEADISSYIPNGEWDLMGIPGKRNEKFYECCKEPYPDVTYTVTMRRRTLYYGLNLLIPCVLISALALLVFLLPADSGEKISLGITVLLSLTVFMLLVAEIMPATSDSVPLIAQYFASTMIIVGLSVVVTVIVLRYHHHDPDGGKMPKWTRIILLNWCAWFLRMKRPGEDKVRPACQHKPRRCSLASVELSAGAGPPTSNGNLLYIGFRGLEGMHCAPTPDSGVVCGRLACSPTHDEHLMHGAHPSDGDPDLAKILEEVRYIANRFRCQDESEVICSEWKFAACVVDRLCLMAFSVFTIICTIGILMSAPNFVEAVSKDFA
Chain of α7 nAChR (P36544 23-502): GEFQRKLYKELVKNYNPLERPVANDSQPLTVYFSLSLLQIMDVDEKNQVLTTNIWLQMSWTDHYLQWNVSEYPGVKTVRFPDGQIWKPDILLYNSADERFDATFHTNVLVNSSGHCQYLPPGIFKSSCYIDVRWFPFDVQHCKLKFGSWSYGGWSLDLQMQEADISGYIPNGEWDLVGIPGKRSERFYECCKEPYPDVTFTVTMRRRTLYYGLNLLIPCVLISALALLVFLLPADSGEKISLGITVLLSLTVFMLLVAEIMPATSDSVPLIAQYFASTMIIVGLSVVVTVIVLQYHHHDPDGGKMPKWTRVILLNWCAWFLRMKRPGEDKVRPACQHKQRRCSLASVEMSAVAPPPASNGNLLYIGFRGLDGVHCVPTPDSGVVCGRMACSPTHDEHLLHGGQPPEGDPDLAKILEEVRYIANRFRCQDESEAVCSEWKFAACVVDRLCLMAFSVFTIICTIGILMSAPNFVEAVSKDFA
Chain of α7 (P36544 23-502): as above
Chain of JAK2 complex formation with the α7 receptor (Q05941 23-502): as the sequence (Q05941 23-502, one chain of several) above
Chain of JAK2 complex formation with the α7 receptor (Q62689 whole entry, further chain): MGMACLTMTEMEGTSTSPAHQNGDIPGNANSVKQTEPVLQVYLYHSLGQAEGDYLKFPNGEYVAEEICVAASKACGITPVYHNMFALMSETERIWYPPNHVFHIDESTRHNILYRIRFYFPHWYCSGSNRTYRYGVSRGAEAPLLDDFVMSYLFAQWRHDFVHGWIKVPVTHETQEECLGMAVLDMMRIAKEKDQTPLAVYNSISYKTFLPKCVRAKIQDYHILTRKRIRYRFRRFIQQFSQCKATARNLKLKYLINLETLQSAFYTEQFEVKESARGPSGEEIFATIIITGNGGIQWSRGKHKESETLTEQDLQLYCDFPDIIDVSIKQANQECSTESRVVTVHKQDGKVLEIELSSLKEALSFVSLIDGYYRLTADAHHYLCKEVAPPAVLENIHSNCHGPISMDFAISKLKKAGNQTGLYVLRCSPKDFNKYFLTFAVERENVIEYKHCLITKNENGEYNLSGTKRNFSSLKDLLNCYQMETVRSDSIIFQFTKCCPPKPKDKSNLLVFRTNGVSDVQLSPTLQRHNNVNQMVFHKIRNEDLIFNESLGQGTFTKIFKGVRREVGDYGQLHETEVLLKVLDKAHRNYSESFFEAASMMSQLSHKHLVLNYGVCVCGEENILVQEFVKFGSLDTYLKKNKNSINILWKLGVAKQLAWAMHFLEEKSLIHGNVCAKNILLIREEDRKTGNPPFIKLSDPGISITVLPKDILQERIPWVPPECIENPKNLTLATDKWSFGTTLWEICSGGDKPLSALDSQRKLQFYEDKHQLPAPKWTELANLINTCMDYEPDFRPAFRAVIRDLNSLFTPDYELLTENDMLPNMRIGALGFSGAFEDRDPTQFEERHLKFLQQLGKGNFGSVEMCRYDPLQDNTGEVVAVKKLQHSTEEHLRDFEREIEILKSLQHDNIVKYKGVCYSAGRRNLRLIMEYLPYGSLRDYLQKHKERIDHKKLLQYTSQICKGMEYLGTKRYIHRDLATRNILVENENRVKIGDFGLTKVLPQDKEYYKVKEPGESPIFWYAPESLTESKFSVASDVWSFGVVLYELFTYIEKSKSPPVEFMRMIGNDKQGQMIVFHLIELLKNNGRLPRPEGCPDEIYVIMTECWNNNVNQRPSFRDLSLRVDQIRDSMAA
Chain of α4β2 (P43681 29-627): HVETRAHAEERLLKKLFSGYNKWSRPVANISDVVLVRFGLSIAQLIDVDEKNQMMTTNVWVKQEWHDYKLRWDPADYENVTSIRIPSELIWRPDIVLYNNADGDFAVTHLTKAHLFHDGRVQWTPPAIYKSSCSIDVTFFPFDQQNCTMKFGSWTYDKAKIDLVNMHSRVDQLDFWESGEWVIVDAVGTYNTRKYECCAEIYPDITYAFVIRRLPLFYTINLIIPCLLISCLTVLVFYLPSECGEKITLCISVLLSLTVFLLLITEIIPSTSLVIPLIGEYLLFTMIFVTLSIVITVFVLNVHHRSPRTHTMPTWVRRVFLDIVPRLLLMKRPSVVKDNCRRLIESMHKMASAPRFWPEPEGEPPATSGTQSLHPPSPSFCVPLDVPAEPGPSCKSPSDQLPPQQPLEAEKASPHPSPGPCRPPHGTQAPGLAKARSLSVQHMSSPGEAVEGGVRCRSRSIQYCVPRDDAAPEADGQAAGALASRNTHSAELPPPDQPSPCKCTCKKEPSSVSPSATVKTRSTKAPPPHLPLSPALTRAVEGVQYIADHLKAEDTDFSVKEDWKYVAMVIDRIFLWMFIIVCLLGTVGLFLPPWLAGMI
Chain of α4β2 (P17787 26-502): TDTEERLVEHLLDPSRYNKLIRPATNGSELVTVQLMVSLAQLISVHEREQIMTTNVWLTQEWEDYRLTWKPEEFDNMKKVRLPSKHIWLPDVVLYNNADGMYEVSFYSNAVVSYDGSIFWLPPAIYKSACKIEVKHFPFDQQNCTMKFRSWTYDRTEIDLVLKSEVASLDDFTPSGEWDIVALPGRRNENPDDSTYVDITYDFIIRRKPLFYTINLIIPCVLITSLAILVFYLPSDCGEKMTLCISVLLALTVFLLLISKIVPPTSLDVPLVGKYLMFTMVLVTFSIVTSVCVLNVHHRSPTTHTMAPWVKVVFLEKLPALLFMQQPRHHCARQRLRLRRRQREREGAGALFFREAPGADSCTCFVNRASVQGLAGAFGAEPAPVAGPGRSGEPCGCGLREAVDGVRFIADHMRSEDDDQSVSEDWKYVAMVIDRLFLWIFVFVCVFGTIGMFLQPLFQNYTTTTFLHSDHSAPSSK
Chain of ganglionic subtype α3β4 (P32297 32-505): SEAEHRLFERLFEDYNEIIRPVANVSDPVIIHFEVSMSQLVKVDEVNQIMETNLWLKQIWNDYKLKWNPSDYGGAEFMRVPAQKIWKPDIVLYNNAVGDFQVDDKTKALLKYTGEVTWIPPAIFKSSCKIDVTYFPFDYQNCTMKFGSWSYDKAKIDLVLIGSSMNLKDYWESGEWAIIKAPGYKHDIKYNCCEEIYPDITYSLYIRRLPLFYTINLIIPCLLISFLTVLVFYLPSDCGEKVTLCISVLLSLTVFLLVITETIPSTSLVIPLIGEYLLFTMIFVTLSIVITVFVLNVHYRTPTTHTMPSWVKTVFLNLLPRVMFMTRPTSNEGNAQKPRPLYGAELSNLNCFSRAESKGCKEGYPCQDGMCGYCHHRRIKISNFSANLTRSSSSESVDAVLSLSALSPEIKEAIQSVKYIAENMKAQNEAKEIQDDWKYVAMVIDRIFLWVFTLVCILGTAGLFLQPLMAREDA
Chain of ganglionic subtype α3β4 (P30926 22-498): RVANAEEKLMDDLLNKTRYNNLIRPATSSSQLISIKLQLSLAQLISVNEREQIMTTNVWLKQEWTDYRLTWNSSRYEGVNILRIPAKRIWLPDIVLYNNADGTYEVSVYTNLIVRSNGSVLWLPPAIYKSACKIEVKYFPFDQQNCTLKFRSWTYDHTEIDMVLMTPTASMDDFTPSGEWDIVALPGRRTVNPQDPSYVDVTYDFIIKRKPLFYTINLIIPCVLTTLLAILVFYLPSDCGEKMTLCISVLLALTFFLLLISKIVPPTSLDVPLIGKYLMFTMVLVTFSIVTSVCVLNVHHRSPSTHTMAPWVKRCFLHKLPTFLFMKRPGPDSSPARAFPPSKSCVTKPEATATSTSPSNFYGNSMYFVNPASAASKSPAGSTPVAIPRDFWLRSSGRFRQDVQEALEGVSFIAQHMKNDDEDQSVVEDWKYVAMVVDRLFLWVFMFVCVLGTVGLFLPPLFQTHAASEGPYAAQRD
Chain of α3β2 (P32297 32-505): as the sequence (P32297 32-505) above
Chain of α3β2 (P17787 26-502): as the sequence (P17787 26-502) above

A word on the Ki: it is a measure of affinity in units of concentration, obtained from inhibition or displacement. Low values mean tighter binding, high ones weaker binding. On α7, `c1cncc(C2CCC3CCN2CC3)c1` (stereo not shown) [TC-1698, 2-Pyridin-3-yl-1-aza-bicyclo[3.2.2]nonane] had an inhibition constant Ki of 800 pM. Also, on α7 nAChR, the “potency in activating α7 nAChR relative to acetylcholine” value is listed as 50 fold. Further, the “activation of ganglionic subtype α3β4” value at ganglionic subtype α3β4 is reported as “does not activate”. Besides, on muscle subtype α1β1γδ, the “activation of muscle subtype α1β1γδ” value was “does not activate”. Moreover, the “activation of neuronal subtype α3β2” value on α3β2 is recorded as “does not activate”. Moreover, the “activation of neuronal subtype α4β2” value on α4β2 is listed as “does not activate”. Moreover, in the assay on JAK2, the “phosphorylation of Jak-2” value is given as “induces phosphorylation of Jak-2”. In the assay with PI-3 kinase, the “activation of PI-3 Kinase” value was “activation”. The “activation of Akt” value with Akt was “activation”.
Regarding `CNC1(C)C2CCC(C2)C1(C)C` (stereo not shown) [mecamylamine], the “effect on NIC blockade of reserpine-induced dopamine depletion” value in [1] is recorded as “blocked”.
For the compound “Ang II (DRVYIHPF; Angiotensin-2; UniProt P01019 25-32, looked up)”, in the assay on JAK2, the “effect of preincubation on nicotine-induced tyrosine phosphorylation of JAK2” value was “blocks”. Besides, in the assay on PC12 cells, the PC12 cell number entry is “significantly reduced” and the “effect on nicotine-induced neuroprotection (cell viability)” value is “complete reversal”. In addition, the “PARP cleavage / induction” value in assay [2] was “nicotine-insensitive PARP induction”.
For `N#C/C(=C/c1ccc(O)c(O)c1)C(=O)NCc1ccccc1` [AG-490], in the assay on JAK2, the “effect on TC-1698-induced activation of JAK2” value is “suppression of activation”; the “effect on basal and nicotine-stimulated JAK2 tyrosine phosphorylation” value is recorded as “inhibits”. In addition, in the assay on PI-3 kinase, the “effect on TC-1698-induced activation of PI-3 Kinase” value is on record as “suppression of activation” and the “effect on nicotine-induced tyrosine phosphorylation of PI-3K” value is listed as “inhibits”. Further, in the assay on Akt, the “effect on TC-1698-induced activation of Akt” value is recorded as “suppression of activation” and the “effect on nicotine-induced serine phosphorylation of Akt” value was “inhibits”. In addition, in assay [3], the “effect on co-immunoprecipitation (complex formation) of Aβ(1–42) and α7-nAChR” value is given as “prevented”. Besides, the “effect on nicotine inhibition of Aβ(1–42)-induced caspase 3 activation” value with caspase 3 was “prevented”.
For the compound `C[N+](C)(C)CCCCCC[N+](C)(C)C` [hexamethonium], the “effect on NIC blockade of reserpine-induced dopamine depletion” value in assay [1] is “not”.
In the case of `CN1CCCC1c1cccnc1` (stereo not shown) [nicotine], the “time to JAK2 tyrosine phosphorylation” value with JAK2 lay in the range of 5 to 10 min. In addition, the “effect on co-immunoprecipitation (complex formation) of Aβ(1–42) and α7-nAChR” value in assay [3] was “blocked”. The “effect on Aβ(1–42)-induced activation of caspase 3” value with caspase 3 (PC12 cells, nicotine 10 μM, Aβ(1–42) 100 nM, P<0.01) is “blocked”. Further, in the assay with PC12 cells (PC12 cells, Ang II 100 nM, 8 hours), the “effect on Ang II-induced apoptosis (cell number)” value is on record as “not affected”. Also, the “effect on Aβ(1–42)-induced cell death when co-incubated with AG-490” value in the assay with PC12 cells (PC12 cells, Aβ(1–42) 100 nM, 8 hours) is on record as “no effect”. Moreover, the “effect on cell death induced by Aβ(1–42)” value with PC12 cells (PC12 cells, Aβ(1–42) 100 nM, 8 hours, P<0.01) is reported as “significantly reduced”. Also, the “time to association of JAK2 with the α7 receptor” value in assay [4] is on record as no more than 5 min. In addition, the reserpine-induced dopamine depletion result in [1] is “blocked”. Also, the “dopaminergic neurotoxicity (loss of striatal dopamine) induced by 6-OHDA” value in assay [5] is listed as “attenuates”. Besides, the “methamphetamine toxicity (brain levels)” value in assay [6] is listed as “prevents”. For the same compound, in the assay on MPTP effects, Mice, the “striatal MPP+ levels induced by MPTP” value is reported as “reduces”.
Regarding Aβ(1–42), the “caspase 3 activity” value in the assay on caspase 3 was “significant increase”. In addition, in the assay on PC12 cells, the PC12 cell number entry is recorded as “significant decrease”. The “PARP cleavage / induction” value in assay [2] is recorded as “cleaved”.
